Like-named read-outs stand apart in the source and are kept apart here.
Molecular target: T1, SIRT1 (Homo sapiens, UniProt Q96EB6)
T1 sequence (Q96EB6 1-747): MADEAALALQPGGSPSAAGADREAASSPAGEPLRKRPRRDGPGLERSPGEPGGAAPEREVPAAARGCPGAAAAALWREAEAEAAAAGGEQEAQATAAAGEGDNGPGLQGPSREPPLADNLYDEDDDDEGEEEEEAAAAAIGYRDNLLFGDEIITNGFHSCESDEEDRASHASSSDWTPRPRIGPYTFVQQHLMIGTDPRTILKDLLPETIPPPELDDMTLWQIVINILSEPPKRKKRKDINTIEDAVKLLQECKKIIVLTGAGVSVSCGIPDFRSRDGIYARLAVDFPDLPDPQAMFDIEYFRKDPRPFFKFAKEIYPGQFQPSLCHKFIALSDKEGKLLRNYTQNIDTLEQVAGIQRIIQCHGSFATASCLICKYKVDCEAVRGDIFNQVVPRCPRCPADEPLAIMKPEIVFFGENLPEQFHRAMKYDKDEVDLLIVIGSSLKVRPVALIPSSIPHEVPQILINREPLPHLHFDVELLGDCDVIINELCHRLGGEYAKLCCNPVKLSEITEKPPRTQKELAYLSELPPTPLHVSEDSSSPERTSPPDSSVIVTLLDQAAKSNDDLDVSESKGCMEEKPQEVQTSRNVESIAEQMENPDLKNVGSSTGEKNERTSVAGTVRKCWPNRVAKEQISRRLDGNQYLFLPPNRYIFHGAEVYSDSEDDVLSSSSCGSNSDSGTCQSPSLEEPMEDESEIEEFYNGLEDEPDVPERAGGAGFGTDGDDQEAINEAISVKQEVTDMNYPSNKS
Test: Mass spectrometry based SIRT1 deacetylase activation assay (acetylated p53-derived peptide substrate)
Type: biochemical

[1] = 0.5 μM peptide substrate, 120 μM βNAD+, 10 nM SIRT1, 25 min at 25° C.
[2] = 0.5 μM peptide substrate, 120 μM βNAD+, 10 nM SIRT1, 25 min at 25° C., read-out: EC1.5
[3] = 0.5 μM peptide substrate, 120 μM βNAD+, 10 nM SIRT1, 25 minutes at 25° C.

Row | Fold Act. (percent maximum fold activation) [1] | EC1.5 [2] [nM] | EC1.5 [3] | Fold Act. (percent maximum fold activation) [3] | SMILES | further results
1 | A (Fold activation >200%) | < 1000 |  |  | O=C(Nc1cccnc1)c1cccc2[nH]c(-c3ccc(N4CCOCC4)cc3C(F)F)nc12 [Compound 554] | 
2 | A (Fold activation >200%) | < 1000 |  |  | Cc1ccc(OCCN2CCOCC2)c(-c2nc3c(C(=O)Nc4nccs4)cccc3[nH]2)c1 [Compound 545] | 
3 | A (Fold activation >200%) | < 1000 |  |  | Cc1nc(-c2ccccc2)sc1-c1nc2c(C(=O)Nc3nccs3)cccc2[nH]1 [Compound 408] | 
4 | B (Fold Activation <200%) | 1000 to 25000 |  |  | O=C(Nc1ccccn1)c1cccc2[nH]c(-c3ccccc3OCCN3CC[C@H](F)C3)nc12 [Compound 510] | 
5 |  |  |  |  | O=C(Nc1cccc2[nH]c(-c3ccccc3C(F)(F)F)nc12)c1cnccn1 [Compound 366] | EC1.5: B (EC1.5 1-25 uM); Fold Act. (percent maximum fold activation): A (Fold activation >200%)
6 |  |  | C (EC1.5 >25 uM) | B (Fold Activation <200%) | O=C(Nc1ccccn1)c1cccc2[nH]c(-c3cc(N4CCCC4)ccc3C(F)(F)F)nc12 [Compound 688] | 
7 |  |  |  |  | O=C(Nc1ccncc1)c1cccc2[nH]c(-c3cccc(C(F)(F)F)c3)nc12 [Compound 242] | EC1.5: B (EC1.5 1-25 uM); Fold Act. (percent maximum fold activation): B (Fold Activation <200%)
8 |  |  | A (EC1.5<1.0 uM) | A (Fold activation >200%) | Cc1cnc(NC(=O)c2cc(F)cc3nc(-c4ccccc4C(F)F)[nH]c23)s1 [Compound 833] | 
9 |  |  |  |  | CCOC(=O)c1csc(NC(=O)c2cccc3[nH]c(-c4cccc(C(F)(F)F)c4)nc23)n1 [Compound 308] | EC1.5: B (EC1.5 1-25 uM); Fold Act. (percent maximum fold activation): A (Fold activation >200%)
10 |  |  | A (EC1.5<1.0 uM) | A (Fold activation >200%) | O=C(Nc1nccs1)c1cccc2[nH]c(-c3cnccc3C(F)(F)F)nc12 [Compound 702] | 
11 |  |  | A (EC1.5<1.0 uM) | A (Fold activation >200%) | O=C(Nc1cccc(CN2CCOCC2)n1)c1cccc2[nH]c(-c3cccc(Cl)c3)nc12 [Compound 853] | 
12 |  |  |  |  | O=C(NC1CCCC1)c1cccc2[nH]c(-c3cccc(C(F)(F)F)c3)nc12 [Compound 276] | EC1.5: C (EC1.5 >25 uM); Fold Act. (percent maximum fold activation): B (Fold Activation <200%)
13 |  |  | A (EC1.5<1.0 uM) | A (Fold activation >200%) | Cc1cnc(NC(=O)c2cncc3[nH]c(-c4ccc(OC[C@@H](O)CO)cc4C(F)(F)F)nc23)s1 [Compound 759] | 
14 |  |  | A (EC1.5<1.0 uM) | A (Fold activation >200%) | O=C(Nc1nccs1)c1cncc2[nH]c(-c3ccc(N4CCOCC4)cc3C(F)F)nc12 [Compound 804] | 
15 |  |  | A (EC1.5<1.0 uM) | A (Fold activation >200%) | O=C(Nc1nccs1)c1cc(F)cc2nc(-c3ccc(Cl)cc3C(F)F)[nH]c12 [Compound 821] | 
16 |  |  | A (EC1.5<1.0 uM) | A (Fold activation >200%) | O=C(Nc1nc(CN2CCOCC2)cs1)c1cccc2[nH]c(-c3ccccc3C(F)F)nc12 [Compound 845] | 
17 | B (Fold Activation <200%) | > 25000 |  |  | CN1CCOc2cc(-c3nc4c(C(=O)Nc5ccccn5)cccc4[nH]3)cnc21 [Compound 439] | 
18 |  |  |  |  | O=C(Nc1nccs1)c1cccc2[nH]c(-c3ccccc3)nc12 [Compound 200] | EC1.5: B (EC1.5 1-25 uM); Fold Act. (percent maximum fold activation): A (Fold activation >200%)
19 | A (Fold activation >200%) | < 1000 |  |  | O=C(Nc1nccs1)c1cccc2[nH]c(-c3ccc(OC[C@H](O)CO)cc3C(F)F)nc12 [Compound 556, (R)-2-(2-(difluoromethyl)-4-(2,3-dihydroxypropoxy)phenyl)-N-(thiazol-2-yl)-1H-benzo[d]imidazole-4-carboxamide] | 
20 |  |  | A (EC1.5<1.0 uM) | A (Fold activation >200%) | O=C(Nc1nccs1)c1cc(F)cc2nc(-c3ccc(F)cc3C(F)F)[nH]c12 [Compound 824] | 
21 |  |  | A (EC1.5<1.0 uM) | A (Fold activation >200%) | O=C(Nc1cccc(CN2CCOCC2)n1)c1cccc2[nH]c(-c3ccc(Cl)cc3C(F)(F)F)nc12 [Compound 675] | 
22 | A (Fold activation >200%) | < 1000 |  |  | O=C(Nc1nccs1)c1cccc2[nH]c(-c3ccc(F)cc3C(F)F)nc12 [Compound 559, 2-(2-(difluoromethyl)-4-fluorophenyl)-N-(thiazol-2-yl)-1H-benzo[d]imidazole-4-carboxamide] | 

Row | Fold Act. (percent maximum fold activation) [1] | EC1.5 [2] [nM] | EC1.5 [3] | Fold Act. (percent maximum fold activation) [3] | SMILES | further results
23 | A (Fold activation >200%) | 1000 to 25000 |  |  | CCCN1CCc2cc(-c3nc4c(C(=O)Nc5cccnc5)cccc4[nH]3)ccc21 [Compound 569] | 
24 | A (Fold activation >200%) | < 1000 |  |  | O=C(Nc1nccs1)c1cccc2[nH]c(-c3cn4ccsc4n3)nc12 [Compound 400] | 
25 | A (Fold activation >200%) | < 1000 |  |  | O=C(Nc1nccs1)c1cccc2[nH]c(-c3ccc(N4CCOCC4)cc3C(F)(F)F)nc12 [Compound 414] | 
26 |  |  | A (EC1.5<1.0 uM) | A (Fold activation >200%) | Cc1ncccc1-c1nc2c(C(=O)Nc3nc(CN4CCOCC4)cs3)cccc2[nH]1 [Compound 842] | 
27 |  |  | B (EC1.5 1-25 uM) | A (Fold activation >200%) | O=C(Nc1ccccc1OCC(O)CO)c1cccc2[nH]c(-c3ccc(F)cc3C(F)(F)F)nc12 (centres unmarked) [Compound 727] | 
28 | A (Fold activation >200%) | < 1000 |  |  | O=C(Nc1nccs1)c1cccc2[nH]c(-c3ccccc3C(F)F)nc12 [Compound 514] | 
29 |  |  | A (EC1.5<1.0 uM) | A (Fold activation >200%) | O=C(Nc1cccnc1)c1cc(N2CCOCC2)cc2[nH]c(-c3ccccc3C(F)F)nc12 [Compound 735] | 
30 |  |  | A (EC1.5<1.0 uM) | A (Fold activation >200%) | O=C(Nc1cccc(CN2CCOCC2)n1)c1cccc2[nH]c(-c3cccc(F)c3)nc12 [Compound 851] | 
31 |  |  |  |  | Cc1cnc(NC(=O)c2cccc3[nH]c(-c4ccccc4C(F)(F)F)nc23)s1 [Compound 343] | EC1.5: A (EC1.5<1.0 uM); Fold Act. (percent maximum fold activation): A (Fold activation >200%)
32 |  |  |  |  | O=C(Nc1nccs1)c1cccc2[nH]c(-c3cccnc3N3CCNCC3)nc12 [Compound 282] | EC1.5: B (EC1.5 1-25 uM); Fold Act. (percent maximum fold activation): A (Fold activation >200%)
33 | A (Fold activation >200%) | < 1000 |  |  | Cc1cnc(NC(=O)c2cccc3[nH]c(-c4ccc(N5CCOCC5)cc4C(F)(F)F)nc23)s1 [Compound 549] | 
34 |  |  | A (EC1.5<1.0 uM) | A (Fold activation >200%) | O=C(Nc1cccc(CN2CCOCC2)n1)c1cccc2[nH]c(-c3ccccc3C(F)F)nc12 [Compound 817] | 
35 |  |  | A (EC1.5<1.0 uM) | A (Fold activation >200%) | O=C(Nc1cccc(OC2CCNC2)c1)c1cccc2[nH]c(-c3ccc(Cl)cc3C(F)(F)F)nc12 (centres unmarked) [Compound 599] | 
36 |  |  | A (EC1.5<1.0 uM) | A (Fold activation >200%) | Cc1cnc(NC(=O)c2cccc3[nH]c(-c4sc(N5CCOCC5)nc4C)nc23)s1 [Compound 601] | 
37 | B (Fold Activation <200%) | 1000 to 25000 |  |  | O=C(Nc1nccs1)c1cccc2[nH]c(-c3ccc(F)cc3OCCN3CCOCC3)nc12 [Compound 503] | 
38 |  |  | A (EC1.5<1.0 uM) | A (Fold activation >200%) | O=C(Nc1nccs1)c1cccc2[nH]c(-c3ccc(N4CC[C@H](F)C4)cc3C(F)(F)F)nc12 [Compound 606] | 
39 |  |  | A (EC1.5<1.0 uM) | A (Fold activation >200%) | O=C(Nc1cccc(OC[C@H](O)CO)c1)c1cccc2[nH]c(-c3ccccc3F)nc12 [Compound 784] | 
40 | A (Fold activation >200%) | 1000 to 25000 |  |  | O=C(Nc1nccs1)c1cccc2[nH]c(-c3ccc(N4CCCC4)cc3C(F)(F)F)nc12 [Compound 572] | 
41 |  |  |  |  | Cc1nc(-c2nc3c(C(=O)Nc4nccs4)cccc3[nH]2)c(C)o1 [Compound 244] | EC1.5: B (EC1.5 1-25 uM); Fold Act. (percent maximum fold activation): A (Fold activation >200%)
42 |  |  |  |  | O=C(Nc1nccs1)c1cccc2[nH]c(-c3ccc(F)c(Cl)c3)nc12 [Compound 235] | EC1.5: B (EC1.5 1-25 uM); Fold Act. (percent maximum fold activation): A (Fold activation >200%)
43 |  |  |  |  | O=C(Nc1nccs1)c1cccc2[nH]c(-c3cccc(OCCN4CCOCC4)c3)nc12 [Compound 347] | EC1.5: B (EC1.5 1-25 uM); Fold Act. (percent maximum fold activation): A (Fold activation >200%)

Reference: patent US8846947B2, “Benzimidazoles and related analogs as sirtuin modulators” (GlaxoSmithKline LLC, priority 2008, dated 2014)
